# Patent publication US12492173B2, “Herbicidal substituted N-tetrazolyl aryl carboxamides” (Bayer Aktiengesellschaft, priority 2019, dated 2025)
# Assays:
# Assay type in all cases: in vivo
# Viola tricolor = assay: Pre-emergence herbicidal action, VIOTR; design: key to Herbicidal action against VIOTR: % activity: 100 = plants have died, 0 = like control plants; conditions: for Herbicidal action against VIOTR: comparative experiment, 80 g of a.i./ha; for herbicidal activity VIOTR / herbicidal action VIOTR: dosage 320 g/ha; for herbicidal activity VIOTR: scored visually after 3 weeks vs untreated controls (100% = plants have died)
# In short: (§1)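 Sown pots (sandy loam) sprayed pre-emergence → greenhouse → visual rating at 3 weeks; % activity vs untreated control, 100% = dead.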
# Amaranthus retroflexus = assay: Pre-emergence herbicidal action, AMARE; design: key to Herbicidal action against AMARE: % activity: 100 = plants have died, 0 = like control plants; conditions: for herbicidal activity AMARE / herbicidal action AMARE: dosage 320 g/ha; for herbicidal activity AMARE: scored visually after 3 weeks vs untreated controls (100% = plants have died); for Herbicidal action against AMARE: comparative experiment
# In short: as §1
# Alopecurus myosuroides = assay: Post-emergence herbicidal action, ALOMY; design: key: % herbicidal action vs untreated; 100 = plants died, 0 = like control; conditions: for Herbicidal action against ALOMY: comparative experiment
# In short: (§2)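 Treatment: post-emergence spray, one-leaf stage. Medium: sandy loam, greenhouse. Carrier: 600–800 l/ha water, 0.2% wetting agent. Read-out: visual % activity at ~3 weeks, untreated plants as reference.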
# Matricaria inodora = assay: Post-emergence herbicidal action, MATIN; design: key: % herbicidal action vs untreated; 100 = plants died, 0 = like control; conditions: for Herbicidal action against MATIN: comparative experiment
# In short: as §2
# Veronica persica [1] = assay: Post-emergence herbicidal action, VERPE; design: key: % herbicidal action vs untreated; 100 = plants died, 0 = like control; conditions: for Herbicidal action against VERPE: comparative experiment
# In short: as §2
# Veronica persica [2] = assay: Pre-emergence herbicidal action, VERPE; design: key to Herbicidal action against VERPE: % activity: 100 = plants have died, 0 = like control plants; conditions: for herbicidal activity VERPE / herbicidal action VERPE: dosage 320 g/ha; for herbicidal activity VERPE: scored visually after 3 weeks vs untreated controls (100% = plants have died); for Herbicidal action against VERPE: comparative experiment
# In short: as §1
# [3] = post-emergence, 20 g of a.i./ha
SMILES,herbicidal activity VIOTR (Viola tricolor) [%],herbicidal activity AMARE (Amaranthus retroflexus) [%],"herbicidal action ALOMY (Alopecurus myosuroides; post-emergence, dosage 80 g/ha) [%]","herbicidal action MATIN (Matricaria inodora; post-emergence, dosage 80 g/ha) [%]","herbicidal action VERPE (Veronica persica [1]; post-emergence, dosage 80 g/ha) [%]",herbicidal activity VERPE (Veronica persica [2]) [%],herbicidal action ALOMY (Alopecurus myosuroides; Dosage 80 g/ha),herbicidal action MATIN (Matricaria inodora; Dosage 80 g/ha),herbicidal action VERPE (Veronica persica [1]; Dosage 80 g/ha),other results
CC[S+]([O-])Cc1c(C(F)(F)F)ccc(C(=O)Nc2nnnn2C)c1Br (racemic) [Example 1-384],100,100,90,90,100,100,–,–,–,Herbicidal action against VIOTR (Viola tricolor): 100; Herbicidal action against MATIN (Matricaria inodora; [3]): 90; Herbicidal action against VERPE (Veronica persica [1]; [3]): 100
CSCc1c(C(F)(F)F)ccc(C(=O)Nc2nnnn2C)c1C [Example 1-83],100,100,80,100,100,100,–,–,–,–
CCS(=O)(=O)Cc1c(C(F)(F)F)ccc(C(=O)Nc2nnnn2C)c1C [Example 1-88],–,–,–,–,–,–,80,90,100,herbicidal action VIOTR (Viola tricolor): 100%; herbicidal action AMARE (Amaranthus retroflexus): 100%; herbicidal action VERPE (Veronica persica [2]): 100%
CSc1c(C(=O)Nc2nnnn2C)ccc(C(F)(F)F)c1C[S+](C)[O-] (centres unmarked) [Example 1-162],100,100,100,100,100,90,–,–,–,Herbicidal action against AMARE (Amaranthus retroflexus; 20 g of a.i./ha): 100
CSc1c(C(=O)Nc2nnnn2C)ccc(C(F)F)c1C[S+](C)[O-] (centres unmarked) [Example 1-171],100,100,–,–,–,100,80,90,100,–
CSCc1c(C)ccc(C(=O)Nc2nnnn2C)c1Cl [Example 1-287],–,–,–,–,–,–,90,100,100,herbicidal action VIOTR (Viola tricolor): 90%; herbicidal action AMARE (Amaranthus retroflexus): 90%; herbicidal action VERPE (Veronica persica [2]): 100%
CCSCc1c(C(F)(F)F)ccc(C(=O)Nc2nnnn2C)c1Cl [Example 1-299],100,100,90,90,100,100,–,–,–,"Herbicidal action against ALOMY (Alopecurus myosuroides; post-emergence, 5 g of a.i./ha): 70; Herbicidal action against MATIN (Matricaria inodora; post-emergence, 5 g of a.i./ha): 80; Herbicidal action against VERPE (Veronica persica [1]; post-emergence, 5 g of a.i./ha): 100; Herbicidal action against VERPE (Veronica persica [2]; 20 g of a.i./ha): 100"
Cn1nnnc1NC(=O)c1ccc(C(F)(F)F)c(CSC2CC2)c1Cl [Example 1-302],100,100,100,90,90,100,–,–,–,–
Cn1nnnc1NC(=O)c1ccc(C(F)(F)F)c(CS(=O)(=O)C2CC2)c1Cl [Example 1-304],100,100,100,90,100,100,–,–,–,–
COCCSCc1c(C(F)(F)F)ccc(C(=O)Nc2nnnn2C)c1Cl [Example 1-305],100,100,100,100,90,100,–,–,–,–
Cn1nnnc1NC(=O)c1ccc(C(F)(F)F)c(CSCC(F)(F)F)c1Cl [Example 1-311],100,100,–,–,–,100,100,100,100,–
Cn1nnnc1NC(=O)c1ccc(C(F)(F)F)c(CSCC2CC2)c1Cl [Example 1-314],100,100,100,100,100,100,–,–,–,–
Cn1nnnc1NC(=O)c1ccc(C(F)(F)F)c(CS(=O)(=O)CC2CC2)c1Cl [Example 1-316],100,100,–,–,–,100,90,90,100,–
Cn1nnnc1NC(=O)c1ccc(C(F)F)c(CS(C)(=O)=O)c1Cl [Example 1-322],100,100,90,80,100,100,–,–,–,–
CCSCc1c(C(F)F)ccc(C(=O)Nc2nnnn2C)c1Cl [Example 1-323],100,100,90,100,100,100,–,–,–,–
CCS(=O)(=O)Cc1c(C(F)F)ccc(C(=O)Nc2nnnn2C)c1Cl [Example 1-325],100,100,–,–,–,100,90,80,100,–
CSCc1c(I)ccc(C(=O)Nc2nnnn2C)c1Cl [Example 1-362],100,100,90,100,100,100,–,–,–,"Herbicidal action against AMARE (Amaranthus retroflexus; 20 g of a.i./ha): 90; Herbicidal action against ALOMY (Alopecurus myosuroides; post-emergence, 5 g of a.i./ha): 70; Herbicidal action against VERPE (Veronica persica [2]; 20 g of a.i./ha): 60"
Cn1nnnc1NC(=O)c1ccc(I)c(CS(C)(=O)=O)c1Cl [Example 1-364],100,100,–,–,–,100,90,100,100,Herbicidal action against AMARE (Amaranthus retroflexus; 20 g of a.i./ha): 100; Herbicidal action against VERPE (Veronica persica [2]; 20 g of a.i./ha): 100
CCSCc1c(C(F)(F)F)ccc(C(=O)Nc2nnnn2C)c1Br [Example 1-383],100,100,100,90,100,100,–,–,–,Herbicidal action against VIOTR (Viola tricolor): 100; Herbicidal action against AMARE (Amaranthus retroflexus; 80 g of a.i./ha): 100; Herbicidal action against ALOMY (Alopecurus myosuroides; [3]): 80; Herbicidal action against VERPE (Veronica persica [1]; [3]): 100; Herbicidal action against VERPE (Veronica persica [2]; 80 g of a.i./ha): 100
CCS(=O)(=O)Cc1c(C(F)(F)F)ccc(C(=O)Nc2nnnn2C)c1Br [Example 1-385],100,100,90,90,100,100,–,–,–,Herbicidal action against AMARE (Amaranthus retroflexus; 80 g of a.i./ha): 100; Herbicidal action against ALOMY (Alopecurus myosuroides; [3]): 80; Herbicidal action against MATIN (Matricaria inodora; [3]): 90; Herbicidal action against VERPE (Veronica persica [1]; [3]): 100; Herbicidal action against VERPE (Veronica persica [2]; 80 g of a.i./ha): 100
CSCc1c(Cl)ccc(C(=O)Nc2nnnn2C)c1Cl [Example 1-559],–,–,90,100,100,–,–,–,–,herbicidal action VIOTR (Viola tricolor): 100%; herbicidal action AMARE (Amaranthus retroflexus): 100%; herbicidal action VERPE (Veronica persica [2]): 90%
CCSCc1c(C(F)(F)F)ccc(C(=O)Nc2nnnn2CC)c1C [Example 2-86],–,–,90,100,90,–,–,–,–,herbicidal action VIOTR (Viola tricolor): 100%; herbicidal action AMARE (Amaranthus retroflexus): 100%; herbicidal action VERPE (Veronica persica [2]): 100%
CCn1nnnc1NC(=O)c1ccc(C(F)(F)F)c(CS(=O)(=O)CC)c1C [Example 2-88],–,–,–,–,–,–,90,90,100,herbicidal action VIOTR (Viola tricolor): 100%; herbicidal action AMARE (Amaranthus retroflexus): 100%; herbicidal action VERPE (Veronica persica [2]): 100%
CCn1nnnc1NC(=O)c1ccc(C(F)F)c(C[S+](C)[O-])c1C (centres unmarked) [Example 2-108],–,–,–,–,–,–,80,100,100,herbicidal action VIOTR (Viola tricolor): 100%; herbicidal action AMARE (Amaranthus retroflexus): 100%; herbicidal action VERPE (Veronica persica [2]): 100%
CCn1nnnc1NC(=O)c1ccc(C(F)(F)F)c(C[S+](C)[O-])c1SC (centres unmarked) [Example 2-162],100,100,–,–,–,90,90,100,90,–
CCn1nnnc1NC(=O)c1ccc(C(F)F)c(CSC)c1SC [Example 2-170],100,100,–,–,–,100,80,100,90,–
